Data published in patent US7897369B2, “Isoprenoid wax ester synthases, isoprenoid acyl CoA-synthetases, and uses thereof” (Regents of the University of Minnesota, priority 2007, dated 2011).

Experiments:
[1] = system: S. cerevisiae H1246 expressing WS2; test: Heterologous expression of WS2 in TAG deficient yeast, FAEE by TLC; type: cell-based, Saccharomyces cerevisiae; conditions: H1246 given both ethanol and oleic acid as substrates
Procedure: Fifteen milliliters of grown yeast were centrifuged for 10 minutes at 4000 rpm. The cell pellets were vortexed vigorously with glass beads for 5 minutes to lyse open cells and extracted with 1 mL chloroform of which 5 μL were spotted on TLC with Whatman normal phase silica gel 60 plates and developed using hexane:diethyl ether:acetic acid (90:10:1, v/v/v). TLC plates were stained with either iodine vapor.

[2] = system: S. cerevisiae YGL035c expressing WS2; test: Heterologous expression of WS2 in MIG1 deletion yeast, ethyloleate by TLC and GC; type: cell-based, Saccharomyces cerevisiae
Procedure: S. cerevisiae YGL035c BY4742 with following genotype: MATalpha his3Δ1 leu2Δ0 lys2Δ0 ura3Δ0 ΔMIG1 was purchased from ATCC ([…]; Manassas, Va.). S. cerevisiae YGL035c was cultivated for electro transformation in YPG (Yeast peptone glucose) medium at 30° C. overnight. 100 μL of washed yeast cell pellets were electroporated with 5 μL of pESC_URA for the negative control or 5 μL of pESC URA WS2, which expresses acyltransferase gene constructs. Cells were rescued with 800 μL 1M sorbitol and 200 μL were plated onto synthetic minimal media drop out agar plates without uracil. Colonies were seen after 2 days and were picked and grown in nitrogen base medium (Difco Detroit Mich.) […], and 0.13% (wt/vol), synthetic dropout medium supplement without uracil, and 2% (wt/vol) glucose. One hundred milliliter yeast cultures were grown aerobically overnight at 30° C. in 250 ml flask with synthetic dropout uracil growth media with glucose. Cells were spun down and resuspended in 200 mL of fresh dropout media with 2% glucose, 0.1% potassium oleate, and 2% galactose to induce expression of heterologous protein. Cultures were capped with a rubber stopper with syringe needle piercing the top of the rubber stopper to allow gas (carbon dioxide) to exit during the 72 hours anaerobic growth. Cells were harvested and resuspended in 1 mL of chloroform and approximately 0.5 grams of glass beads. Total lipid composition of yeast was determined from cells harvested from a 200-ml liquid culture, broken with glass-beads in a 50-mL Falcon tube, and extracted into 1.5 mL of chloroform.
Cells were vortexed vigorously for 5 minutes to lyse open cells and chloroform was removed and evaporated under nitrogen gas. 15 mL sample of 250 mL cultures were centrifuged and lysed with glass beads, the yeast lysates were resuspended in 1 ml chloroform for GC/MS analysis and TLC analysis.
Fifteen milliliters of grown yeast were centrifuged for 10 minutes at 4000 rpm. […]
For quantification of ethyloleate, chloroform extractions of three known amounts (1.5 nmoles, 15 nmoles, and 30 nmoles) of ethyloleate standard were injected into the gas chromatograph (GC) in which the peak areas were integrated to calculate the amounts of ethyloleate produced by YGL035c expressing WS2. Three microliters of chloroform extracts from the samples were injected and analyzed on a gas chromatography electron impact mass spectrometry that were performed with a Hewlett Packard 6890 series gas chromatograph connected to an HP 5973 mass spectrometer. […]

Acs2/WS2 = test: Acs2/WS2-coupled assay with oleic acid and ethanol (TLC); type: biochemical, Marinobacter hydrocarbonoclasticus; conditions: oleic acid and ethanol as substrates, each 250 μM, 37° C. overnight
Procedure: In vitro coupled assays/TLC analysis—Stock solutions of various fatty acid substrates (oleic acid) were prepared in 50 mM Tris-HCl buffer (pH 8) containing 1% gum arabic, […], 0.1% taurocholate, and 100 mM of fatty acid. WS/Acs enzyme coupled assays were carried out in 500 μL reactions containing 50 mM Tris-HCl buffer pH 8.0, 12.5 μL of fatty acid stock solution and addition of ethyl alcohol solution (final concentrations of each substrate 250 μM), 10 mM MgCl2, 10 mM CoASH, 10 mM ATP, 5 mM TCEP, 0.1 U of inorganic pyrophosphatase, 0.25 μg of Acs2 (acyl CoA synthetase) and 0.5 μg of WS2 (wax ester synthase). Assays were incubated at 37° C. overnight before thin-layer chromatography (TLC) analysis of reaction products. In vitro WS assay samples were extracted with 500 μL of chloroform:methanol (1:1 [vol/vol]), and chloroform:methanol extracts were analyzed by TLC with Whatman normal phase silica gel 60 plates where products were separated using hexane:diethyl ether:acetic acid (90:10:1 [vol/vol/vol]). Products were compared to an ethyloleate standard. Resolved TLC plates were stained with iodine vapor.

SMILES	Ethyloleate production in vivo (TLC) [1]	Ethyloleate formed from the oleate added ([2]; 250 mL culture, 889 μmoles oleate added)	Ethyloleate production in vivo (TLC) ([2]; Mig1 deletion yeast expressing pESC-URA-WS2, galactose induced, grown anaerobically with 0.1% potassium oleate)	Ethyloleate production in vivo (TLC) ([2]; potassium oleate not supplemented)	Ethyloleate formation in Acs2/WS2-coupled assay (TLC) (Acs2/WS2)	% Efficiency oleate to ethyloleate ([2]; 0.1% (wt/vol) oleate in 250 mL (889 μmoles))
CCCCCCCC/C=C\CCCCCCCC(=O)OCC [ethyloleate]	produced in vivo	approximately 50 μmol	shown in vivo	No ethyloleate product was seen	–	–
CCCCCCCC/C=C\CCCCCCCC(=O)O [oleic acid]	–	–	–	–	ethyloleate ester product was synthesized in vitro	5.5%
